Several values for one entry are separate records, joined by “and”; a condition that tells them apart may be missing. Identical values can stand only once.
What was measured:
[1] = Biodistribution with blocking by excess cold EPI-002; assay type: in vivo, male castrated NOD/SCID mice; details: excess cold EPI-002 50 mg/kg body weight; 1 hour
[2] = Micro-SPECT/CT imaging of mice bearing LNCaP95 and PC3 xenografts; assay type: in vivo, male castrated NOD/SCID mice
endogenous AR = assay: Binding to endogenous AR in LNCaP95 cells; assay type: cell-based, human; details: 16 hours
[3] = target: T1, recombinant full-length AR (Homo sapiens, UniProt P10275); assay: Cell-free binding to recombinant full-length AR; details: 16 hours at room temperature
T1 sequence (P10275 1-920): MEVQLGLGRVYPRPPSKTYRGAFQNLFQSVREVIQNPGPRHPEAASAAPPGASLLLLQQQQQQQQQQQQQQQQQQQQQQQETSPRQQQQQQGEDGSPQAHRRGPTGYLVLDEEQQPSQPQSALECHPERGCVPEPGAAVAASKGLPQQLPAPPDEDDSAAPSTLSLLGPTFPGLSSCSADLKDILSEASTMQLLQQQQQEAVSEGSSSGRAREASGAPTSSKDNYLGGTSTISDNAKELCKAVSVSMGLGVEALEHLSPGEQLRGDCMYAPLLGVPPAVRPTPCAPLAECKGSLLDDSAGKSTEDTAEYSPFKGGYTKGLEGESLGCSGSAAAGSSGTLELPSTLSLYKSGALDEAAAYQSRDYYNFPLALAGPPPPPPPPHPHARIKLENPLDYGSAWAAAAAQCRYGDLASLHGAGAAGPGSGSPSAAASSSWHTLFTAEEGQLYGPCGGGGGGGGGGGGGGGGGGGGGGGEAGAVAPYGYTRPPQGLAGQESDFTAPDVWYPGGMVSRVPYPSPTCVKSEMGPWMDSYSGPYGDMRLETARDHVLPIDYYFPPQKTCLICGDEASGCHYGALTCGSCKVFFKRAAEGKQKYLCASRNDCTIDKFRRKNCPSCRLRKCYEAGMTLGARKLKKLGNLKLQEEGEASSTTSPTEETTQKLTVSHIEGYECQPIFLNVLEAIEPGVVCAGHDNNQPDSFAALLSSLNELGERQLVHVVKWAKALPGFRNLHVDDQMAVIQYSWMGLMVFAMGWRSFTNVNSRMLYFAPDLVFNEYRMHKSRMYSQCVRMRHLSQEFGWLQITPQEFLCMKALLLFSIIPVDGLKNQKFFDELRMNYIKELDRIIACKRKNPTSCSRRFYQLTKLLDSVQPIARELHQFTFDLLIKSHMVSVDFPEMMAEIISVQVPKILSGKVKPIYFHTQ

[4] = In vivo biodistribution in mice bearing LNCaP95 and PC3 xenografts; set-up: species or system male castrated NOD/SCID mice

[^123I]15-iodoEPI002 [^123I-EPI-002]
decrease in ^123I-EPI-002 accumulation in the LNCaP95 xenograft by blocking [1]: 74%
LNCaP95 tumor uptake (SPECT) ([2]; 2 hours after injection): 1.09% ± 0.41%
thyroid uptake ([2]; blocking with EPI-002): 2.32% ± 0.33%
thyroid uptake ([2]; unblocked): approximately 2.31% ± 0.59%
binding to endogenous AR in LNCaP95 cells (endogenous AR): binds covalently and specifically to AR
binding to recombinant full-length AR [3]: binds to recombinant full-length AR
Bladder uptake ([4]; 0 h after injection): 0.79 ± 0.49 %ID/g
Blood uptake ([4]; 0 h after injection): 12.57 ± 2.03 %ID/g
Bone uptake ([4]; 0 h after injection): 1.09 ± 0.75 %ID/g
Brain uptake ([4]; 0 h after injection): 1.29 ± 0.55 %ID/g
Heart uptake ([4]; 0 h after injection): 7.62 ± 1.86 %ID/g
Kidney uptake ([4]; 0 h after injection): 5.57 ± 2.37 %ID/g
Large intestine uptake ([4]; 0 h after injection): 0.70 ± 0.42 %ID/g
Liver uptake ([4]; 0 h after injection): 5.03 ± 3.29 %ID/g
Lung uptake ([4]; 0 h after injection): 5.19 ± 1.59 %ID/g
Muscle uptake ([4]; 0 h after injection): 1.60 ± 1.89 %ID/g
Negative tumor (PC3) uptake ([4]; 0 h after injection): 0.19 ± 0.06 %ID/g
Positive tumor (LNCaP95) uptake ([4]; 0 h after injection): 0.17 ± 0.06 %ID/g
Ratio LNCaP95/PC3 ([4]; 0 h after injection): 0.9
Ratio LNCaP95/blood ([4]; 0 h after injection): 0.01
Ratio LNCaP95/kidney ([4]; 0 h after injection): 0.03
Ratio LNCaP95/liver ([4]; 0 h after injection): 0.04
Ratio LNCaP95/muscle ([4]; 0 h after injection): 0.22
Small intestine uptake ([4]; 0 h after injection): 2.44 ± 1.05 %ID/g
Spleen uptake ([4]; 0 h after injection): 1.15 ± 1.04 %ID/g
Stomach uptake ([4]; 0 h after injection): 1.80 ± 1.60 %ID/g
Bladder uptake ([4]; 1 h after injection): 1.47 ± 0.65 %ID/g
Blood uptake ([4]; 1 h after injection): 0.74 ± 0.30 %ID/g
Bone uptake ([4]; 1 h after injection): 1.03 ± 0.31 %ID/g
Brain uptake ([4]; 1 h after injection): 1.68 ± 0.67 %ID/g
Gallbladder uptake ([4]; 1 h after injection): 10.09 ± 6.60 %ID/g
Heart uptake ([4]; 1 h after injection): 2.25 ± 0.50 %ID/g
Kidney uptake ([4]; 1 h after injection): 3.07 ± 0.90 %ID/g
Large intestine uptake ([4]; 1 h after injection): 1.22 ± 0.34 %ID/g
Liver uptake ([4]; 1 h after injection): 7.76 ± 0.95 %ID/g
Lung uptake ([4]; 1 h after injection): 2.40 ± 1.01 %ID/g
Muscle uptake ([4]; 1 h after injection): 1.34 ± 0.40 %ID/g
Ratio LNCaP95/PC3 ([4]; 1 h after injection): 3.2
Ratio LNCaP95/blood ([4]; 1 h after injection): 3.58 ± 0.66 and 3.58
Ratio LNCaP95/kidney ([4]; 1 h after injection): 0.71
Ratio LNCaP95/liver ([4]; 1 h after injection): 0.29
Ratio LNCaP95/muscle ([4]; 1 h after injection): 1.72
Small intestine uptake ([4]; 1 h after injection): 7.43 ± 5.25 %ID/g
Spleen uptake ([4]; 1 h after injection): 0.96 ± 0.23 %ID/g
Stomach uptake ([4]; 1 h after injection): 1.73 ± 0.69 %ID/g
Bladder uptake ([4]; 2 h after injection): 1.13 ± 0.55 %ID/g
Blood uptake ([4]; 2 h after injection): 0.31 ± 0.08 %ID/g
Bone uptake ([4]; 2 h after injection): 0.51 ± 0.11 %ID/g
Brain uptake ([4]; 2 h after injection): 0.83 ± 0.21 %ID/g
Gallbladder uptake ([4]; 2 h after injection): 2.12 ± 3.60 %ID/g
Heart uptake ([4]; 2 h after injection): 1.04 ± 0.22 %ID/g
Kidney uptake ([4]; 2 h after injection): 1.43 ± 0.58 %ID/g
Large intestine uptake ([4]; 2 h after injection): 1.90 ± 2.02 %ID/g
Liver uptake ([4]; 2 h after injection): 4.81 ± 1.13 %ID/g
Lung uptake ([4]; 2 h after injection): 0.78 ± 0.19 %ID/g
Muscle uptake ([4]; 2 h after injection): 0.49 ± 0.18 %ID/g
Negative tumor (PC3) uptake ([4]; 2 h after injection): 0.35 ± 0.14 %ID/g
Positive tumor (LNCaP95) uptake ([4]; 2 h after injection): 1.13 ± 0.16 %ID/g
Ratio LNCaP95/PC3 ([4]; 2 h after injection): 3.3
Ratio LNCaP95/blood ([4]; 2 h after injection): 3.74
Ratio LNCaP95/kidney ([4]; 2 h after injection): 0.96
Ratio LNCaP95/liver ([4]; 2 h after injection): 0.24
Ratio LNCaP95/muscle ([4]; 2 h after injection): 2.51
Small intestine uptake ([4]; 2 h after injection): 6.29 ± 3.72 %ID/g
Spleen uptake ([4]; 2 h after injection): 0.71 ± 0.34 %ID/g
Stomach uptake ([4]; 2 h after injection): 0.68 ± 0.31 %ID/g
Bladder uptake ([4]; 4 h after injection): 0.52 ± 0.17 %ID/g
Blood uptake ([4]; 4 h after injection): 0.25 ± 0.07 %ID/g
Bone uptake ([4]; 4 h after injection): 0.39 ± 0.13 %ID/g
Brain uptake ([4]; 4 h after injection): 0.55 ± 0.18 %ID/g
Gallbladder uptake ([4]; 4 h after injection): 0.35 ± 0.03 %ID/g
Heart uptake ([4]; 4 h after injection): 0.88 ± 0.18 %ID/g
Kidney uptake ([4]; 4 h after injection): 1.05 ± 0.11 %ID/g
Large intestine uptake ([4]; 4 h after injection): 66 %ID/g and 66.53 ± 34.05 %ID/g
Liver uptake ([4]; 4 h after injection): 4.30 ± 0.68 %ID/g
Lung uptake ([4]; 4 h after injection): 0.75 ± 0.24 %ID/g
Muscle uptake ([4]; 4 h after injection): 0.45 ± 0.13 %ID/g
Negative tumor (PC3) uptake ([4]; 4 h after injection): 0.50 ± 0.17 %ID/g
Positive tumor (LNCaP95) uptake ([4]; 4 h after injection): 1.04 ± 0.14 %ID/g
Ratio LNCaP95/PC3 ([4]; 4 h after injection): 2.1
Ratio LNCaP95/blood ([4]; 4 h after injection): 4.38
Ratio LNCaP95/kidney ([4]; 4 h after injection): 1.00
Ratio LNCaP95/liver ([4]; 4 h after injection): 0.25
Ratio LNCaP95/muscle ([4]; 4 h after injection): 2.57
Small intestine uptake ([4]; 4 h after injection): 6.25 ± 2.18 %ID/g
Spleen uptake ([4]; 4 h after injection): 0.55 ± 0.24 %ID/g
Stomach uptake ([4]; 4 h after injection): 0.29 ± 0.19 %ID/g
Bladder uptake ([4]; 6 h after injection): 0.39 ± 0.21 %ID/g
Blood uptake ([4]; 6 h after injection): 0.17 ± 0.03 %ID/g
Bone uptake ([4]; 6 h after injection): 0.21 ± 0.08 %ID/g
Brain uptake ([4]; 6 h after injection): 0.39 ± 0.12 %ID/g
Gallbladder uptake ([4]; 6 h after injection): 9.64 ± 16.02 %ID/g
Heart uptake ([4]; 6 h after injection): 0.51 ± 0.13 %ID/g
Kidney uptake ([4]; 6 h after injection): 0.65 ± 0.24 %ID/g
Large intestine uptake ([4]; 6 h after injection): 47.42 ± 7.58 %ID/g
Liver uptake ([4]; 6 h after injection): 2.92 ± 0.94 %ID/g
Lung uptake ([4]; 6 h after injection): 0.50 ± 0.25 %ID/g
Muscle uptake ([4]; 6 h after injection): 0.24 ±0.09 %ID/g
Negative tumor (PC3) uptake ([4]; 6 h after injection): 0.49 ± 0.01 %ID/g
Positive tumor (LNCaP95) uptake ([4]; 6 h after injection): 0.52 ± 0.10 %ID/g
Ratio LNCaP95/PC3 ([4]; 6 h after injection): 1.1
Ratio LNCaP95/blood ([4]; 6 h after injection): 3.12
Ratio LNCaP95/kidney ([4]; 6 h after injection): 0.85
Ratio LNCaP95/liver ([4]; 6 h after injection): 0.21
Ratio LNCaP95/muscle ([4]; 6 h after injection): 2.56
Small intestine uptake ([4]; 6 h after injection): 2.37 ± 1.43 %ID/g
Spleen uptake ([4]; 6 h after injection): 0.30 ± 0.18 %ID/g
Stomach uptake ([4]; 6 h after injection): 0.19 ± 0.08 %ID/g
Bladder uptake ([4]; 12 h after injection): 0.09 ± 0.04 %ID/g
Blood uptake ([4]; 12 h after injection): 0.07 ± 0.04 %ID/g
Bone uptake ([4]; 12 h after injection): 0.07 ± 0.05 %ID/g
Brain uptake ([4]; 12 h after injection): 0.10 ± 0.05 %ID/g
Gallbladder uptake ([4]; 12 h after injection): 3.12 ± 0.81 %ID/g
Heart uptake ([4]; 12 h after injection): 0.17 ± 0.10 %ID/g
Kidney uptake ([4]; 12 h after injection): 0.16 ± 0.08 %ID/g
Large intestine uptake ([4]; 12 h after injection): 27.02 ± 14.89 %ID/g
Liver uptake ([4]; 12 h after injection): 1.06 ± 0.48 %ID/g
Lung uptake ([4]; 12 h after injection): 0.16 ± 0.08 %ID/g
Muscle uptake ([4]; 12 h after injection): 0.06 ± 0.03 %ID/g
Negative tumor (PC3) uptake ([4]; 12 h after injection): 0.13 ± 0.13 %ID/g
Positive tumor (LNCaP95) uptake ([4]; 12 h after injection): 0.15 ± 0.08 %ID/g
Ratio LNCaP95/PC3 ([4]; 12 h after injection): 1.2
Ratio LNCaP95/blood ([4]; 12 h after injection): 2.22
Ratio LNCaP95/kidney ([4]; 12 h after injection): 0.92
Ratio LNCaP95/liver ([4]; 12 h after injection): 0.14
Ratio LNCaP95/muscle ([4]; 12 h after injection): 2.98
Small intestine uptake ([4]; 12 h after injection): 2.14 ± 1.49 %ID/g
Spleen uptake ([4]; 12 h after injection): 0.07 ± 0.03 %ID/g
Stomach uptake ([4]; 12 h after injection): 1.78 ± 1.27 %ID/g
